Assay results: EP4725957A1, “GROUP OF CYCLIC ALKALINE LIPOPEPTIDE COMPOUNDS, AND PREPARATION METHOD THEREFOR AND USE THEREOF” (Institute of Medicinal Biotechnology, Chinese Academy of …, priority 2023, dated 2024)
Values after ≈ are worked out from the molar mass of the structure shown. Read-outs that look alike come from different tables or passages of the source. Bridge positions count the residues as written; N and C are the ends. Square brackets hold non-standard residues; d marks the D form. Peptide text beside a SMILES is read from it. * marks the point of attachment. Heptanoyl(6-Me) = CC(C)CCCCC(=O)*; Sulfomethyl = O=S(=O)(O)C*; Nonanoyl = CCCCCCCCC(=O)*; X1 = CC[C@H](C)CCCCC(=O)*; dDab = NCC[C@@H](N)C(=O)O; Heptanoyl = CCCCCCC(=O)*; Octanoyl = CCCCCCCC(=O)*; Orn = NCCC[C@H](N)C(=O)O; dDap = NC[C@@H](N)C(=O)O; Dab = NCC[C@H](N)C(=O)O; Dap = NC[C@H](N)C(=O)O

Columns and labels:
Type in all cases: cell-based
[1] = Nephrotoxicity assay: in vitro cytotoxicity of HK-2 cells by CCK-8 assay; details: human, HK-2 cells (human renal), 72 h incubation with drug-containing medium
Method in brief: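 Compounds in sterile water, diluted to final 500, 250, 200, 100, 50, 25 and 12.5 µg/mL, were applied for 72 h to human HK-2 kidney cells. Absorbance at 450 nm after 3 h CCK-8 gave viability against untreated wells, and IC50 came from logarithmic regression; three replicates.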

[2] = tested on: Acinetobacter baumannii ABA19-1
Method in brief: (§1)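 The MIC value comes from CLSI broth microdilution after 16-20 h at 35-37°C. Cyclic lipopeptides in Mueller-Hinton broth spanned 64 to 0.03 mg/L final, with each well carrying (2-4) × 10^5 CFU/mL.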

[3] = tested on: Klebsiella pneumoniae ATCC BAA-1705 (KPC)
Method in brief: as §1

[4] = tested on: Escherichia coli ATCC BAA-2340 (KPC)
Method in brief: as §1

[5] = tested on: Acinetobacter baumannii NCTC 13304 (OXA-27)
Method in brief: as §1

[6] = tested on: Pseudomonas aeruginosa PAE19-3
Method in brief: as §1

[7] = tested on: Escherichia coli ATCC BAA-2523
Method in brief: as §1

[8] = tested on: Klebsiella pneumoniae KPN+19-15
Method in brief: as §1

[9] = tested on: Pseudomonas aeruginosa ATCC 27853
Method in brief: as §1

| Structure (SMILES) | IC50 at 72 h [1] [µg/mL] | MIC ([2]; Acinetobacter baumannii ABA19-1) [µg/mL] | MIC ([3]; Klebsiella pneumoniae ATCC BAA-1705 (KPC)) [µg/mL] | MIC ([4]; Escherichia coli ATCC BAA-2340 (KPC)) [µg/mL] | MIC ([5]; Acinetobacter baumannii NCTC 13304 (OXA-27)) [µg/mL] | MIC ([6]; Pseudomonas aeruginosa PAE19-3) [µg/mL] | MIC ([7]; Escherichia coli ATCC BAA-2523) [µg/mL] | MIC ([8]; Klebsiella pneumoniae KPN 19-15) [µg/mL] | MIC ([9]; Pseudomonas aeruginosa ATCC27853) [µg/mL] | MIC ([2]; ABA19-1) [µg/mL] | MIC ([3]; ATCC BAA-1705) [µg/mL] | MIC ([4]; ATCC BAA-2340) [µg/mL] | MIC ([5]; NCTC 13304) [µg/mL] | MIC ([6]; PAE19-3) [µg/mL] | MIC ([7]; ATCC BAA-2523) [µg/mL] | MIC ([8]; KPN+19-15) [µg/mL] | MIC ([9]; ATCC 27853) [µg/mL] |
| --- | --- | --- | --- | --- | --- | --- | --- | --- | --- | --- | --- | --- | --- | --- | --- | --- | --- |
| CCCCCCCC(=O)N[C@@H](CCN)C(=O)N[C@H](C(=O)N[C@@H](CN)C(=O)N[C@H]1CCNC(=O)[C@H]([C@@H](C)O)NC(=O)[C@H](CCN)NC(=O)[C@H](CCN)NC(=O)[C@H](CC(C)C)NC(=O)[C@@H](Cc2ccccc2)NC(=O)[C@H](CCN)NC1=O)[C@@H](C)O [Compound 38, Octanoyl-Dab-Thr-Dap-ring(4-10)[Dab-Dab-D-Phe-Leu-Dab-Dab-Thr]] (Octanoyl-[Dab]T[Dap][Dab][Dab][dF]L[Dab][Dab]T; lactam 4-C) | 219 ± 9.4 (≈ 186 µM) | 0.03 (≈ 0.0255 µM) | 0.03 (≈ 0.0255 µM) | 0.03 (≈ 0.0255 µM) | 0.03 (≈ 0.0255 µM) | 0.25 (≈ 0.213 µM) | 0.03 (≈ 0.0255 µM) | 0.03 (≈ 0.0255 µM) | 0.03 (≈ 0.0255 µM) | – | – | – | – | – | – | – | – |
| CCCCCCCCC(=O)N[C@@H](CCN)C(=O)N[C@H](C(=O)N[C@H](CO)C(=O)N[C@H]1CCNC(=O)[C@H]([C@@H](C)O)NC(=O)[C@H](CCN)NC(=O)[C@H](CCCN)NC(=O)[C@H]([C@@H](C)O)NC(=O)[C@@H](Cc2ccccc2)NC(=O)[C@H](CCN)NC1=O)[C@@H](C)O [Compound 80, Nonanoyl-Dab-Thr-D-Ser-ring(4-10)[Dab-Dab-D-Phe-Thr-Orn-Dab-Thr]] (Nonanoyl-[Dab]T[dS][Dab][Dab][dF]T[Orn][Dab]T; lactam 4-C) | 288 ± 19.5 (≈ 241 µM) | – | – | – | – | – | – | – | – | 0.06 (≈ 0.0503 µM) | 0.25 (≈ 0.21 µM) | 0.06 (≈ 0.0503 µM) | 0.03 (≈ 0.0252 µM) | 64 (≈ 53.7 µM) | 0.06 (≈ 0.0503 µM) | 0.5 (≈ 0.419 µM) | >64 |
| CC(C)CCCCC(=O)N[C@@H](CCN)C(=O)N[C@H](C(=O)N[C@@H](CN)C(=O)N[C@H]1CCNC(=O)[C@H]([C@@H](C)OCS(=O)(=O)O)NC(=O)[C@H](CCN)NC(=O)[C@H](CCN)NC(=O)[C@H]([C@@H](C)O)NC(=O)[C@@H](Cc2ccccc2)NC(=O)[C@H](CCN)NC1=O)[C@@H](C)O [Compound 115, 6-methylheptanoyl-Dab-Thr-Dap-ring(4-10)[Dab-Dab-D-Phe-Thr-Dab-Dab-Thr(CH2SO3H)]] ({Heptanoyl(6-Me)}-[Dab]T[Dap][Dab][Dab][dF]T[Dab][Dab]T(Sulfomethyl); lactam 4-C) | > 500 | – | – | – | – | – | – | – | – | 0.06 (≈ 0.0477 µM) | 0.125 (≈ 0.0994 µM) | 0.03 (≈ 0.0239 µM) | 0.06 (≈ 0.0477 µM) | 0.25 (≈ 0.199 µM) | 0.03 (≈ 0.0239 µM) | 0.125 (≈ 0.0994 µM) | 0.25 (≈ 0.199 µM) |
| CCCCCCCCC(=O)N[C@@H](CN)C(=O)N[C@H](C(=O)N[C@H](CO)C(=O)N[C@H]1CCNC(=O)[C@H]([C@@H](C)O)NC(=O)[C@H](CCN)NC(=O)[C@H](CCN)NC(=O)[C@H]([C@@H](C)O)NC(=O)[C@@H](Cc2ccccc2)NC(=O)[C@H](CCN)NC1=O)[C@@H](C)O [Compound 55, Nonanoyl-Dap-Thr-D-Ser-ring(4-10)[Dab-Dab-D-Phe-Thr-Dab-Dab-Thr]] (Nonanoyl-[Dap]T[dS][Dab][Dab][dF]T[Dab][Dab]T; lactam 4-C) | 300 ± 10.8 (≈ 258 µM) | – | – | – | – | – | – | – | – | 0.25 (≈ 0.215 µM) | 0.25 (≈ 0.215 µM) | 0.03 (≈ 0.0258 µM) | 0.25 (≈ 0.215 µM) | 8 (≈ 6.87 µM) | 0.03 (≈ 0.0258 µM) | 0.5 (≈ 0.429 µM) | 64 (≈ 55 µM) |
| CCCCCCC(=O)N[C@@H](CCN)C(=O)N[C@H](C(=O)N[C@@H](CCCN)C(=O)N[C@H]1CCNC(=O)[C@H]([C@@H](C)O)NC(=O)[C@H](CCN)NC(=O)[C@H](CCN)NC(=O)[C@H]([C@@H](C)O)NC(=O)[C@@H](Cc2ccccc2)NC(=O)[C@H](CCN)NC1=O)[C@@H](C)O [Compound 29, Heptanoyl-Dab-Thr-Orn-ring(4-10)[Dab-Dab-D-Phe-Thr-Dab-Dab-Thr]] (Heptanoyl-[Dab]T[Orn][Dab][Dab][dF]T[Dab][Dab]T; lactam 4-C) | > 500 | – | – | – | – | – | – | – | – | 0.125 (≈ 0.106 µM) | 0.03 (≈ 0.0255 µM) | 0.03 (≈ 0.0255 µM) | 0.06 (≈ 0.051 µM) | 0.5 (≈ 0.425 µM) | 0.03 (≈ 0.0255 µM) | 0.03 (≈ 0.0255 µM) | 0.03 (≈ 0.0255 µM) |
| CC[C@H](C)CCCCC(=O)N[C@@H](CCN)C(=O)N[C@H](C(=O)N[C@H](CCN)C(=O)N[C@H]1CCNC(=O)[C@H]([C@@H](C)O)NC(=O)[C@H](CCN)NC(=O)[C@H](CCN)NC(=O)[C@H]([C@@H](C)O)NC(=O)[C@@H](Cc2ccccc2)NC(=O)[C@H](CCN)NC1=O)[C@@H](C)O [Compound 11, (S)-6-methyloctanoyl-Dab-Thr-D-Dab-ring(4-10)[Dab-Dab-D-Phe-Thr-Dab-Dab-Thr]] (X1-[Dab]T[dDab][Dab][Dab][dF]T[Dab][Dab]T; lactam 4-C) | 371 ± 54.6 (≈ 311 µM) | – | – | – | – | – | – | – | – | ≤0.03 | ≤0.03 | ≤0.03 | ≤0.03 | 1 (≈ 0.839 µM) | ≤0.03 | ≤0.03 | 1 (≈ 0.839 µM) |
| CCCCCCCC(=O)N[C@@H](CCN)C(=O)N[C@H](C(=O)N[C@H](CO)C(=O)N[C@H]1CCNC(=O)[C@H]([C@@H](C)O)NC(=O)[C@H](CCCN)NC(=O)[C@H](CCN)NC(=O)[C@H]([C@@H](C)O)NC(=O)[C@@H](Cc2ccccc2)NC(=O)[C@H](CCN)NC1=O)[C@@H](C)O [Compound 88, Octanoyl-Dab-Thr-D-Ser-ring(4-10)[Dab-Dab-D-Phe-Thr-Dab-Orn-Thr]] (Octanoyl-[Dab]T[dS][Dab][Dab][dF]T[Dab][Orn]T; lactam 4-C) | > 500 | – | – | – | – | – | – | – | – | 0.06 (≈ 0.0509 µM) | 0.25 (≈ 0.212 µM) | 0.03 (≈ 0.0255 µM) | ≤0.03 | 64 (≈ 54.3 µM) | 0.03 (≈ 0.0255 µM) | 0.5 (≈ 0.424 µM) | >64 |
| CC(C)CCCCC(=O)N[C@@H](CCN)C(=O)N[C@H](C(=O)N[C@H](CO)C(=O)N[C@H]1CCNC(=O)[C@H]([C@@H](C)O)NC(=O)[C@H](CCN)NC(=O)[C@H](CCN)NC(=O)[C@H]([C@@H](C)O)NC(=O)[C@@H](Cc2ccccc2)NC(=O)[C@H](CCN)NC1=O)[C@@H](C)OCS(=O)(=O)O [Compound 104, 6-methylheptanoyl-Dab-Thr(CH2SO3H)-D-Ser-ring(4-10)[Dab-Dab-D-Phe-Thr-Dab-Dab-Thr]] ({Heptanoyl(6-Me)}-[Dab]T(Sulfomethyl)[dS][Dab][Dab][dF]T[Dab][Dab]T; lactam 4-C) | > 500 | – | – | – | – | – | – | – | – | 0.06 (≈ 0.0477 µM) | 0.125 (≈ 0.0993 µM) | 0.03 (≈ 0.0238 µM) | 0.06 (≈ 0.0477 µM) | 0.25 (≈ 0.199 µM) | 0.03 (≈ 0.0238 µM) | 0.125 (≈ 0.0993 µM) | 0.25 (≈ 0.199 µM) |
| CC(C)CCCCC(=O)N[C@@H](CCN)C(=O)N[C@H](C(=O)N[C@H](CN)C(=O)N[C@H]1CCNC(=O)[C@H]([C@@H](C)O)NC(=O)[C@H](CCN)NC(=O)[C@H](CCN)NC(=O)[C@H](CC(C)C)NC(=O)[C@@H](Cc2ccccc2)NC(=O)[C@H](CCN)NC1=O)[C@@H](C)O [Compound 32, 6-methylheptanoyl-Dab-Thr-D-Dap-ring(4-10)[Dab-Dab-D-Phe-Leu-Dab-Dab-Thr]] ({Heptanoyl(6-Me)}-[Dab]T[dDap][Dab][Dab][dF]L[Dab][Dab]T; lactam 4-C) | 325 ± 11.7 (≈ 277 µM) | – | – | – | – | – | – | – | – | 0.03 (≈ 0.0255 µM) | 0.03 (≈ 0.0255 µM) | 0.03 (≈ 0.0255 µM) | 0.03 (≈ 0.0255 µM) | 0.25 (≈ 0.213 µM) | 0.03 (≈ 0.0255 µM) | 0.03 (≈ 0.0255 µM) | 0.03 (≈ 0.0255 µM) |
